# pIC50: −log10 of the molar value. Where two headings read alike, the source gives them in different places.
# Legend:
# DYRK2 = target: T1, DYRK2 (Homo sapiens, UniProt Q92630); experiment: Kinase panel IC-50, DYRK2; type: biochemical
# T1 sequence (Q92630 1-601): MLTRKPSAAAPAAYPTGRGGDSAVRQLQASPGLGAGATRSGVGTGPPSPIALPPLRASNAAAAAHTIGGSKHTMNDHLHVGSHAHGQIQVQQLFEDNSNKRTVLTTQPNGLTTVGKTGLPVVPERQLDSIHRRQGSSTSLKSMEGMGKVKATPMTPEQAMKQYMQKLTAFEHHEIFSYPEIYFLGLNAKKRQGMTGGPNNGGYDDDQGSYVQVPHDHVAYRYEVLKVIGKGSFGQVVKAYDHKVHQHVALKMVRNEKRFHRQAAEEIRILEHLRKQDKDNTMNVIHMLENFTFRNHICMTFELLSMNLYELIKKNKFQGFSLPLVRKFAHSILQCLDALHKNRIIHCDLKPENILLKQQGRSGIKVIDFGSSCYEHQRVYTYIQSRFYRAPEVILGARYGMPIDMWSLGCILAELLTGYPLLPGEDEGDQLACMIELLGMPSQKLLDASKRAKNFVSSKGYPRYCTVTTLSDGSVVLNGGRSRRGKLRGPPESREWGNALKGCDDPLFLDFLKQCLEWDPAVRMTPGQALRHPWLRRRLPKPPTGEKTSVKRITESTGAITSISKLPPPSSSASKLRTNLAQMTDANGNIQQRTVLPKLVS
# [1] = Pharmacokinetics in mouse (IV bolus or oral dose); type: in vivo; details: Mouse; for Cmax: read-out: Cmax
# Protocol: The pharmacokinetics properties of drugs were investigated in three species, following an intravenous (IV) bolus or oral (PO) dose of Compound K at the dosages indicated in the chart. Blood samples were collected at predetermined times and the plasma separated. Plasma was separated from the blood samples collected at 5, 15 and 30 minutes and 1, 2, 4, 8 and 24 hours post-dose.
# Drug levels were quantified by the LC/MS/MS method described below. Noncompartmental pharmacokinetic analysis was applied for intravenous administration. […] The terminal t1/2 and C0 were calculated using the last three and the first three data points, respectively
# Bioanalysis was performed using a Quattro Micro LC/MS/MS instrument in the MRM detection mode, with an internal standard (1S). Briefly, 15 μL plasma samples were prepared for analysis using protein precipitation with 120 μL of acetonitrile. The supernatants were transferred into a 96 well plate and subjected to LC-MS/MS analysis using a Phenomenex Polar-RP HPLC column. The mobile phases were 10 mM NH4HCO3 in water (Solution-A) and 10 mM NH4HCO3 in methanol (Solution-B). The column was initially equilibrated with 25% Solution-B and followed with 100% Solution B over 5 minutes. […] Quantitation of the analytes was performed in the batch mode with two bracketing calibration curves according to the bioanalytical sample list.
# [2] = tested on: CFA-induced thermal hyperalgesia; experiment: CFA-induced thermal hyperalgesia model (Hargreaves); type: in vivo, ICR mice; details: 25, 75 or 150 mg/kg BID for four days, dosed as suspensions
# Protocol: The observations of pain responses were done blindly.
# […] On day 4, test subjects received a single injection of CFA (20 microliters) subcutaneously in the plantar surface of the left rear paw. CFA was injected subcutaneously into the plantar surface of the left hind paw of each test subject, under isoflurane anesthesia. […] On day 5, thermal responses were measured prior to treatment with the compound and again 1, 2, and 4 hours after treatment with […]. Withdrawal latencies were measured in response to thermal stimulus by the Hargreaves method. Naproxen was used as a positive control.
# IL-8 = IL-8 production in prostate cancer cells; type: cell-based
smiles,measurement,setting,value
"O=C(O)c1ccc2c(c1)nc(Nc1cccc(Cl)c1)c1ccncc12 [Compound K, 5-(3-chlorophenylamino)benzo[c][2,6]naphthyridine-8-carboxylic acid]",pIC50,DYRK2,7.04
same,CLs,[1]; 5 mg/kg IV,41.7 mL/min/kg
same,Terminal T1/2,[1]; 5 mg/kg IV,5.0 h
same,% F0-inf,[1]; 25 mg/kg PO,20.1%
same,AUC(0-inf),"[1]; in vivo, 5 mg/kg IV, 25 mM sodium phosphate buffer",2000 ng·h/mL
same,Cmax,"[1]; in vivo, 5 mg/kg IV",6700 ng/mL
same,Vd,"[1]; in vivo, 5 mg/kg IV, read-out: Vdss",18.1 L/kg
same,AUC(0-inf),"[1]; in vivo, 25 mg/kg PO, 25 mM phosphate buffer",2010 ng·h/mL
same,Cmax,"[1]; in vivo, 25 mg/kg PO",311 ng/mL
same,half-life,"[1]; in vivo, 25 mg/kg PO, read-out: Terminal T1/2 (converted)",7.1 h
same,effect on CFA-induced thermal hyperalgesia,[2],Neither compound exhibited a statistically significant effect
same,IL-8 production,IL-8; ELISA (24 hr),suppression of IL-8 production
same,IL-8 production,IL-8; qRT-PCR (8 hr),suppression of IL-8 production
